Measured values reported in patent publication US20200399243A1, “NOVEL COMPOUNDS” (Inflazome Limited, priority 2018, published 2020).
Where a name gives a salt, the structure may show the parent alone.

What follows are molecules tested against T1, NLRP3 (Homo sapiens, UniProt Q96P20) (assay: THP-1 cells pyroptosis assay). Settings: 1.0 μg/ml LPS, compound 3 hrs, nigericin 5 μM 1 hr, resazurin readout.
T1 construct: Seed THP-1 cells (25,000 cells/well) containing 1.0 μg/ml LPS in 40 μl of RPMI medium; host or cells: THP-1 cells
T1 sequence (Q96P20 whole entry): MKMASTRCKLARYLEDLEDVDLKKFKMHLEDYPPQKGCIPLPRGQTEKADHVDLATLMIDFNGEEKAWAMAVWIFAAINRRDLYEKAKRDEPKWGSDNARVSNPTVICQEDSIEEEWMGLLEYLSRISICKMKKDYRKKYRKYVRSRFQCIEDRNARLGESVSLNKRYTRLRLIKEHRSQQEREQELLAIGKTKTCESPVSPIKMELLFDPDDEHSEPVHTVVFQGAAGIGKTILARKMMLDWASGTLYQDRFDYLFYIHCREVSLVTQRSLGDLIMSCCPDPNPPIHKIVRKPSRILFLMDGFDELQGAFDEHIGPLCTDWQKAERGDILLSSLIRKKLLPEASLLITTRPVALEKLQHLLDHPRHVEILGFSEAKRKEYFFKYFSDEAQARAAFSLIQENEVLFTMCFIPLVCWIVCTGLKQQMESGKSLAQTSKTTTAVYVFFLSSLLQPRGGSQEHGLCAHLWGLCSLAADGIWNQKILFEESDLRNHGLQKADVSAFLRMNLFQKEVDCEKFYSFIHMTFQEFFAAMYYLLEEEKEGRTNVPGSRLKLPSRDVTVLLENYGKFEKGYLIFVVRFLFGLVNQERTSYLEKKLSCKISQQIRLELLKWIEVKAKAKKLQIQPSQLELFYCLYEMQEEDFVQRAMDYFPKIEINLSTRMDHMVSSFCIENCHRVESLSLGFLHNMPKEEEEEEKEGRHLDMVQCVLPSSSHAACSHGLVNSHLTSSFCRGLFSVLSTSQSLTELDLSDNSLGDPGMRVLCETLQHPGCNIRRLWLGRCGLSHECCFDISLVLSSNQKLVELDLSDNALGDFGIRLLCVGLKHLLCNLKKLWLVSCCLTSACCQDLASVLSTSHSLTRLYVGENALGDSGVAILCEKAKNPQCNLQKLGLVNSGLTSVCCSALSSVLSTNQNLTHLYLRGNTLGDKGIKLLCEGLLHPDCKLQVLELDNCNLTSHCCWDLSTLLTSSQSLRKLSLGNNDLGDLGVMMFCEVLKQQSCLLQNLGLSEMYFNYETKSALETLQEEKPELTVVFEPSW
Type: cell-based
Protocol: THP-1 cells (ATCC # TIB-202) were grown in RPMI containing L-glutamine (Gibco #11835) supplemented with 1 mM sodium pyruvate (Sigma # S8636) and penicillin (100 units/ml)/streptomycin (0.1 mg/ml) (Sigma # P4333) in 10% Fetal Bovine Serum (FBS) (Sigma # F0804). The cells were routinely passaged and grown to confluency (˜10^6 cells/ml). On the day of the experiment, THP-1 cells were harvested and resuspended into RPMI medium (without FBS). The cells were then counted and viability (>90%) checked by Trypan blue (Sigma # T8154). Appropriate dilutions were made to give a concentration of 625,000 cells/ml. To this diluted cell solution was added LPS (Sigma # L4524) to give a 1 μg/ml Final Assay Concentration (FAC). 40 μl of the final preparation was aliquoted into each well of a 96-well plate. The plate thus prepared was used for compound screening. The following method step-by-step assay was followed for compound screening. • 1. Seed THP-1 cells (25,000 cells/well) containing 1.0 μg/ml LPS in 40 μl of RPMI medium (without FBS) in 96-well, black walled, clear bottom cell culture plates coated with poly-D-lysine (VWR #734-0317) • 2. Add 5 μl compound (8 points half-log dilution, with 10 μM top dose) or vehicle (DMSO 0.1% FAC) to the appropriate wells • 3. Incubate for 3 hrs at 37° C., 5% CO2 • 4. Add 5 μl nigericin (Sigma # N7143) (FAC 5 μM) to all wells • 5. Incubate for 1 hr at 37° C., 5% CO2 • 6. At the end of the incubation period, spin plates at 300×g for 3 mins and remove supernatant 7. Then add 50 μl of resazurin (Sigma # R7017) (FAC 100 μM resazurin in RPMI medium without FBS) and incubate plates for a further 1-2 hrs at 37° C. and 5% CO2 • 8. Plates were read in an Envision reader at Ex 560 nm and Em 590 nm • 9. IC50 data is fitted to a non-linear regression equation (log inhibitor vs response-variable slope 4-parameters) The results of the pyroptosis assay are summarised in Table 2 below as THP IC50.

Row | IC50 | SMILES
1 | 1 to 5 µM | CC(C)n1nc(S(=O)(=O)NC(=O)Cc2c3c(cc4c2CCC4)CCC3)cc1CN(C)C [Example 1, N-((5-((Dimethylamino)methyl)-1-isopropyl-1H-pyrazol-3-yl)sulfonyl)-2-(1,2,3,5,6,7-hexahydro-s-indacen-4-yl)acetamide]
2 | 1 to 5 µM | CC(c1cc(S(=O)(=O)NC(=O)Cc2c3c(cc4c2CCC4)CCC3)nn1C(C)C)N(C)C (stereo not drawn) [Example 3, N-((5-(1-(Dimethylamino)ethyl)-1-isopropyl-1H-pyrazol-3-yl)sulfonyl)-2-(1,2,3,5,6,7-hexahydro-s-indacen-4-yl)acetamide]
3 | 1 to 5 µM | CC(c1cc(S(=O)(=O)NC(=O)Cc2c3c(cc4c2CCC4)CCC3)nn1C1CC1)N(C)C (stereo not drawn) [Example 9, N-((1-Cyclopropyl-5-(1-(dimethylamino)ethyl)-1H-pyrazol-3-yl)sulfonyl)-2-(1,2,3,5,6,7-hexahydro-s-indacen-4-yl)acetamide]
4 | 1 to 5 µM | CC(C)c1cc(F)cc(C(C)C)c1CC(=O)NS(=O)(=O)c1cc(CN(C)C)n(C2CC2)n1 [Example 10, N-((1-Cyclopropyl-5-((dimethylamino)methyl)-1H-pyrazol-3-yl)sulfonyl)-2-(4-fluoro-2,6-diisopropylphenyl)acetamide]
5 | 1 to 5 µM | CC(c1cc(S(=O)(=O)NC(=O)Cc2c3c(cc4c2CCC4)CCC3)nn1C)N(C)C (stereo not drawn) [Example 11, N-((5-(1-(Dimethylamino)ethyl)-1-methyl-1H-pyrazol-3-yl)sulfonyl)-2-(1,2,3,5,6,7-hexahydro-s-indacen-4-yl)acetamide]
6 | 5 to 10 µM | CN(C)C(=O)c1cc(S(=O)(=O)NC(=O)Cc2c3c(cc4c2CCC4)CCC3)nn1C [Example 12, 3-(N-(2-(1,2,3,5,6,7-Hexahydro-s-indacen-4-yl)acetyl)sulfamoyl)-N,N,1-trimethyl-1H-pyrazole-5-carboxamide]
7 | 5 to 10 µM | CN(C)CC(C)(C)n1ccc(S(=O)(=O)NC(=O)Cc2c3c(cc4c2CCC4)CCC3)n1 [Example 13, N-((1-(1-(Dimethylamino)-2-methylpropan-2-yl)-1H-pyrazol-3-yl)sulfonyl)-2-(1,2,3,5,6,7-hexahydro-s-indacen-4-yl)acetamide]
8 | 5 to 10 µM | COc1cc(-c2ccc3c(c2CC(=O)NS(=O)(=O)c2cc(C(=O)N(C)C)n(C)n2)CCC3)ccn1 [Example 14, 3-(N-(2-(5-(2-Methoxypyridin-4-yl)-2,3-dihydro-1H-inden-4-yl)acetyl)sulfamoyl)-N,N,1-trimethyl-1H-pyrazole-5-carboxamide]
9 | 1 to 5 µM | CN(C)C(=O)c1cc(S(=O)(=O)NC(=O)Cc2c(-c3ccnc(C#N)c3)ccc3c2CCC3)nn1C [Example 15, 3-(N-(2-(5-(2-Cyanopyridin-4-yl)-2,3-dihydro-1H-inden-4-yl)acetyl)sulfamoyl)-N,N,1-trimethyl-1H-pyrazole-5-carboxamide]
10 | 1 to 5 µM | CC(C)c1cc(F)cc(-c2ccncc2)c1CC(=O)NS(=O)(=O)c1cc(CN(C)C)n(C)n1 [Example 17, N-((5-((Dimethylamino)methyl)-1-methyl-1H-pyrazol-3-yl)sulfonyl)-2-(4-fluoro-2-isopropyl-6-(pyridin-4-yl)phenyl)acetamide]

Further lines, the molecule ahead of its results:

Row | SMILES | IC50
11 | CC(C)c1cc(F)cc(C(C)C)c1CC(=O)NS(=O)(=O)c1cc(C(=O)N(C)C)n(C)n1 [Example 2, 3-(N-(2-(4-Fluoro-2,6-diisopropylphenyl)acetyl)sulfamoyl)-N,N,1-trimethyl-1H-pyrazole-5-carboxamide] | 1 to 5 µM
12 | COc1cc(-c2cc(F)cc(C(C)C)c2CC(=O)NS(=O)(=O)c2cc(C(=O)N(C)C)n(C)n2)ccn1 [Example 4, 3-(N-(2-(4-Fluoro-2-isopropyl-6-(2-methoxypyridin-4-yl)phenyl)acetyl)sulfamoyl)-N,N,1-trimethyl-1H-pyrazole-5-carboxamide, potassium salt] | ≤ 1 µM
13 | CC(C)c1cc(F)cc(-c2cccnc2)c1CC(=O)NS(=O)(=O)c1cc(C(=O)N(C)C)n(C)n1 [Example 5, 3-(N-(2-(4-Fluoro-2-isopropyl-6-(pyridin-3-yl)phenyl)acetyl)sulfamoyl)-N,N,1-trimethyl-1H-pyrazole-5-carboxamide] | 1 to 5 µM
14 | CC(C)c1cc(F)cc(-c2ccncc2)c1CC(=O)NS(=O)(=O)c1cc(C(=O)N(C)C)n(C)n1 [Example 6, 3-(N-(2-(4-Fluoro-2-isopropyl-6-(pyridin-4-yl)phenyl)acetyl)sulfamoyl)-N,N,1-trimethyl-1H-pyrazole-5-carboxamide, potassium salt] | 1 to 5 µM
15 | CC(C)c1cc(F)cc(-c2ccncc2)c1CC(=O)NS(=O)(=O)c1ccn(C(C)(C)CN(C)C)n1 [Example 7, N-((1-(1-(Dimethylamino)-2-methylpropan-2-yl)-1H-pyrazol-3-yl)sulfonyl)-2-(4-fluoro-2-isopropyl-6-(pyridin-4-yl)phenyl)acetamide, potassium salt] | 1 to 5 µM
16 | COc1cc(-c2cc(F)cc(C(C)C)c2CC(=O)NS(=O)(=O)c2cc(CN(C)C)n(C)n2)ccn1 [Example 8, N-((5-((Dimethylamino)methyl)-1-methyl-1H-pyrazol-3-yl)sulfonyl)-2-(4-fluoro-2-isopropyl-6-(2-methoxypyridin-4-yl)phenyl) acetamide, potassium salt] | 1 to 5 µM
17 | CC(C)c1cc(F)cc(C(C)C)c1CC(=O)NS(=O)(=O)c1ccn(CCN(C)C)n1 [Example 16, N-((1-(2-(Dimethylamino)ethyl)-1H-pyrazol-3-yl)sulfonyl)-2-(4-fluoro-2,6-diisopropylphenyl)acetamide] | 5 to 10 µM
18 | COc1cc(-c2cc(F)cc(C(C)C)c2CC(=O)NS(=O)(=O)c2ccn(C(C)(C)CN(C)C)n2)ccn1 [Example 18] | 1 to 5 µM
